Structures can show the parent of a compound that is named as a salt. Where two headings read alike, the source gives them in different places. No end group written: not given here.
Experiments:
[1] = system: Acinetobacter baumannii KCTC 23254; experiment: microbe, parasite or virus in culture; format: cell-based; details: MHB; for MIC: Acinetobacter baumannii, KCTC23254, value in brackets, WST colorimetric, 37 °C 6 h + 2 h, triplicate, read-out: Minimum Inhibitory Concentration; for Minimum Inhibitory Concentration: Microbial Viability Assay Kit-WST, 1.5 × 10^5 CFU/well, 37 °C 6 h + 2 h coloring reagent, A450, triplicate
Description: (§1) The antibacterial activities of the chemically synthesized peptides were evaluated against a panel of bacteria consisting of 6 Gram-negative strains, including E. coli ATCC 25922 (American Type Culture Collection, Manassas, VA, USA), P. aeruginosa ATCC 27853, S. Typhimurium ATCC 14028, A. baumannii KCTC (Korean Collection for Type Cultures, Jeongeup, Korea) 23254, K. pneumoniae KCTC 1726, and E. cloacae ATCC 13047, and 6 Gram-positive strains, including S. aureus ATCC 6538, B. cereus ATCC 10876, E. faecalis ATCC 29212, S. agalactiae ATCC 27956, S. dysgalactiae ATCC 27957, and S. equi ATCC 43079. Ampicillin (Sigma-Aldrich, St. Louis, MO, USA), chloramphenicol (Sigma-Aldrich), and gentamicin sulfate (Sigma-Aldrich) were used as controls for antibacterial activity. The MIC was determined by a colorimetric method using the Microbial Viability Assay Kit-WST (Dojindo, Kumamoto, Japan) according to the manufacturer’s manual and the Clinical and Laboratory Standards Institute (CLSI) guidelines (2018). Four colonies of each bacterium were inoculated into 5 mL of Luria-Bertani (LB) broth medium (BD Bioscience, Franklin Lakes, NJ, USA) or brain heart infusion broth (BHIB; BD Bioscience) at 37 °C for 6 h with shaking at 220 rpm. E. faecalis and streptococci were cultured in BHIB because of their slow growth, whereas all other bacteria were cultured in LB medium. The cells were washed by sterile saline (0.9% NaCl) twice and adjusted in a single well of a 96-well plate at a cell density of 1.5 × 10^5 CFU/well in accordance with 0.5 McFarland standard. Subsequently, 180 µL/well of fresh Mueller-Hinton broth (MHB; BD Bioscience), except for E. faecalis and streptococci using BHIB was added to the plate using BHIB. Final concentrations of 1–40 µg/mL (0.3–19.3 μM) of each peptide and reference antibiotic were added to each well. The plates were then incubated at 37 °C for 6 h. Subsequently, 10 µL of the coloring reagent was added, and the mixture was incubated at 37 °C for 2 h. The absorbance of each well was measured at 450 nm using a microplate spectrophotometer (Bio-Rad, xMark spectrophotometer, Hercules, CA, USA). MIC values were determined when the difference in the absorbance values between treatments and blanks (media and coloring reagent only) was less than 0.05. Experiments were performed in triplicate.

[2] = system: Bacillus cereus ATCC 10876; experiment: microbe, parasite or virus in culture; format: cell-based; details: MHB; for MIC: Bacillus cereus, ATCC10876, value in brackets, WST colorimetric, 37 °C 6 h + 2 h, triplicate, read-out: Minimum Inhibitory Concentration; for Minimum Inhibitory Concentration: Microbial Viability Assay Kit-WST, 1.5 × 10^5 CFU/well, 37 °C 6 h + 2 h coloring reagent, A450, triplicate
Description: as §1

[3] = system: Enterobacter cloacae subsp. cloacae ATCC 13047; experiment: microbe, parasite or virus in culture; format: cell-based; details: MHB; for MIC: Enterobacter cloacae, ATCC13047, value in brackets, WST colorimetric, 37 °C 6 h + 2 h, triplicate, read-out: Minimum Inhibitory Concentration; for Minimum Inhibitory Concentration: Microbial Viability Assay Kit-WST, 1.5 × 10^5 CFU/well, 37 °C 6 h + 2 h coloring reagent, A450, triplicate
Description: as §1

[4] = system: Enterococcus faecalis ATCC 29212; experiment: microbe, parasite or virus in culture; format: cell-based; details: BHIB; for MIC: Enterococcus faecalis, ATCC29212, value in brackets, WST colorimetric, 37 °C 6 h + 2 h, triplicate, read-out: Minimum Inhibitory Concentration; for Minimum Inhibitory Concentration: Microbial Viability Assay Kit-WST, 1.5 × 10^5 CFU/well, 37 °C 6 h + 2 h coloring reagent, A450, triplicate
Description: as §1

[5] = system: Escherichia coli ATCC 25922; experiment: microbe, parasite or virus in culture; format: cell-based; details: MHB; for MIC: Escherichia coli, ATCC25922, 8 h, value in brackets, WST colorimetric, 37 °C 6 h + 2 h, triplicate, read-out: Minimum Inhibitory Concentration; for Minimum Inhibitory Concentration: Microbial Viability Assay Kit-WST, 1.5 × 10^5 CFU/well, 37 °C 6 h + 2 h coloring reagent, A450, triplicate
Description: as §1

[6] = system: Klebsiella pneumoniae subsp. pneumoniae KCTC 1726; experiment: microbe, parasite or virus in culture; format: cell-based; details: MHB; for MIC: Klebsiella pneumoniae, KCTC1726, read-out: Minimum Inhibitory Concentration
Description: as §1

[7] = system: Pseudomonas aeruginosa ATCC 27853; experiment: microbe, parasite or virus in culture; format: cell-based; details: MHB; for Minimum Inhibitory Concentration: Microbial Viability Assay Kit-WST, 1.5 × 10^5 CFU/well, 37 °C 6 h + 2 h coloring reagent, A450, triplicate; for MIC: Pseudomonas aeruginosa, ATCC27853, value in brackets, WST colorimetric, 37 °C 6 h + 2 h, triplicate, read-out: Minimum Inhibitory Concentration
Description: as §1

[8] = system: Salmonella enterica serovar Typhimurium ATCC 14028; experiment: microbe, parasite or virus in culture; format: cell-based; details: MHB; for Minimum Inhibitory Concentration: Microbial Viability Assay Kit-WST, 1.5 × 10^5 CFU/well, 37 °C 6 h + 2 h coloring reagent, A450, triplicate; for MIC: Salmonella enterica, value in brackets, WST colorimetric, 37 °C 6 h + 2 h, triplicate, read-out: Minimum Inhibitory Concentration
Description: as §1

[9] = system: Staphylococcus aureus ATCC 6538; experiment: microbe, parasite or virus in culture; format: cell-based; details: MHB; for Minimum Inhibitory Concentration: Microbial Viability Assay Kit-WST, 1.5 × 10^5 CFU/well, 37 °C 6 h + 2 h coloring reagent, A450, triplicate; for MIC: Staphylococcus aureus, ATCC6538, value in brackets, WST colorimetric, 37 °C 6 h + 2 h, triplicate, read-out: Minimum Inhibitory Concentration
Description: as §1

[10] = system: Streptococcus agalactiae ATCC 27956; experiment: microbe, parasite or virus in culture; format: cell-based; details: BHIB; for Minimum Inhibitory Concentration: Microbial Viability Assay Kit-WST, 1.5 × 10^5 CFU/well, 37 °C 6 h + 2 h coloring reagent, A450, triplicate; for MIC: Streptococcus agalactiae, ATCC27956, value in brackets, WST colorimetric, 37 °C 6 h + 2 h, triplicate, read-out: Minimum Inhibitory Concentration
Description: as §1

[11] = system: Streptococcus dysgalactiae ATCC 27957; experiment: microbe, parasite or virus in culture; format: cell-based; details: BHIB; for Minimum Inhibitory Concentration: Microbial Viability Assay Kit-WST, 1.5 × 10^5 CFU/well, 37 °C 6 h + 2 h coloring reagent, A450, triplicate; for MIC: Streptococcus dysgalactiae, ATCC27957, value in brackets, WST colorimetric, 37 °C 6 h + 2 h, triplicate, read-out: Minimum Inhibitory Concentration
Description: as §1

[12] = system: Streptococcus equi subsp. zooepidemicus ATCC 43079; experiment: microbe, parasite or virus in culture; format: cell-based; details: BHIB; for Minimum Inhibitory Concentration: Microbial Viability Assay Kit-WST, 1.5 × 10^5 CFU/well, 37 °C 6 h + 2 h coloring reagent, A450, triplicate; for MIC: Streptococcus equi, ATCC43079, value in brackets, WST colorimetric, 37 °C 6 h + 2 h, triplicate, read-out: Minimum Inhibitory Concentration
Description: as §1

[13] = system: panel of 12 reference bacteria, comprised of 6 Gram-negative strains and 6 Gram-positive strains; format: cell-based; details: 6 h
Description: as §1

[14] = system: HaCaT cells; experiment: In vitro cytotoxicity assay, WST-1 cell viability; format: cell-based, Human
Description: HaCaT cells were cultured in Dulbecco’s modified Eagle’s medium (DMEM; Hyclone^TM, Logan, UT, USA) with 10% fetal bovine serum (FBS; Hyclone^TM) and 1% penicillin/streptomycin (Pen-Strep; Hyclone^TM) up to 80% confluence at 37 ℃ and 5% CO2. Cells were detached from the plate by adding 0.25% trypsin-EDTA solution (Gibco^TM; Carlsbad, CA, USA). In a 96-well plate, 2 × 10^4 cells were seeded per well and cultured for 24 h. Subsequently, the medium was replaced with 100 μL DMEM (Hyclone^TM) containing 10% heat-inactivated FBS. Peptides were added to each well at concentrations of 64 μg/mL and 160 μg/mL. As references for complete cell lysis, 64 μg/mL melittin (Sigma-Aldrich) and Triton X-100 (Sigma-Aldrich) were used. Untreated cells were used as negative controls. After 24 h incubation at 37 ℃ and 5 % CO2, 10 μL of coloring solution (Cell Proliferation Reagent WST-1^TM; Sigma Aldrich) was added to each well according to the manufacturer’s instructions. The absorbance at 450 nm (treated group and control) and 650 nm (background) was measured in each well using a microplate reader (xMarkTM spectrophotometer; Bio-Rad). The cell viability was calculated using the following equation. All experiments were performed in triplicate. Cell viability (%) = 100 × (OD (treated group) − OD(Background))/(OD (negative control) − OD (Background))(2)

[15] = value in brackets, WST colorimetric, 37 °C 6 h + 2 h, triplicate
[16] = Microbial Viability Assay Kit-WST, 1.5 × 10^5 CFU/well, 37 °C 6 h + 2 h coloring reagent, A450, triplicate

| Compound | MIC [1] [µM] | Minimum Inhibitory Concentration [1] [µg/mL] | MIC [2] [µM] | Minimum Inhibitory Concentration [2] [µg/mL] | MIC [3] [µM] | Minimum Inhibitory Concentration [3] [µg/mL] | MIC [4] [µM] | Minimum Inhibitory Concentration [4] [µg/mL] | MIC [5] [µM] | Minimum Inhibitory Concentration [5] [µg/mL] | MIC [6, 15] [µM] | Minimum Inhibitory Concentration [7] [µg/mL] | MIC [7] [µM] | Minimum Inhibitory Concentration [8] [µg/mL] | MIC [8] [µM] | Minimum Inhibitory Concentration [9] [µg/mL] | MIC [9] [µM] | Minimum Inhibitory Concentration [10] [µg/mL] | MIC [10] [µM] | Minimum Inhibitory Concentration [11] [µg/mL] | also measured |
| --- | --- | --- | --- | --- | --- | --- | --- | --- | --- | --- | --- | --- | --- | --- | --- | --- | --- | --- | --- | --- | --- |
| CC1(C)S[C@@H]2[C@H](NC(=O)[C@H](N)c3ccccc3)C(=O)N2[C@H]1C(=O)O [Ampicillin] | > 229 | > 80 | 229 | 80 | > 229 | > 80 | 28.6 | 10 | 14.3 | 5 | > 229 | > 640 | > 1830 | > 80 | > 229 | 2 | 5.7 | 4 | 11.4 | 2 | Minimum Inhibitory Concentration [6, 16]: > 80 µg/mL; MIC [11]: 5.7 µM; Minimum Inhibitory Concentration [12]: 2 µg/mL; MIC [12]: 5.7 µM |
| CNC(C)C1CCC(N)C(OC2C(N)CC(N)C(OC3OCC(C)(O)C(NC)C3O)C2O)O1 (stereo not drawn) [Gentamicin, gentamicin sulfate] | 21 | 10 | 2.1 | 1 | 2.1 | 1 | 189 | 90 | 2.1 | 1 | 39.8 | 1 | 2.1 | 1 | 2.1 | 1 | 2.1 | 75 | 158 | 15 | MIC [6, 16]: 19 µg/mL; MIC [11]: 31.5 µM; Minimum Inhibitory Concentration [12]: 45 µg/mL; MIC [12]: 94.5 µM |
| O=C(N[C@H](CO)[C@H](O)c1ccc([N+](=O)[O-])cc1)C(Cl)Cl [chloramphenicol] | 118 | 38 | 31 | 10 | 15.5 | 5 | 31 | 10 | 9.3 | 3 | > 248 | 80 | 248 | 5 | 15.5 | 7.5 | 23.2 | 5 | 15.5 | 4 | Minimum Inhibitory Concentration [6, 16]: > 80 µg/mL; MIC [11]: 12.4 µM; Minimum Inhibitory Concentration [12]: 5 µg/mL; MIC [12]: 15.5 µM |
| GIFILKHRRPIGRGIEIT [ΔML-CATH] |  |  |  |  |  |  |  |  |  |  |  |  |  |  |  |  |  |  |  |  | MIC (no observable antibacterial activity) [13]: > 13.7 µM |
| IAGRIAGKLIGDAINRHRERNRQRR [ΔPD-CATH] |  |  |  |  |  |  |  |  |  |  |  |  |  |  |  |  |  |  |  |  | MIC (no observable antibacterial activity) [13]: > 13.7 µM |
| ILGPALRIGGRIAGRIAGKLIGDAINRHRERNRQRRG [PD-CATH] |  |  |  |  |  |  |  |  |  |  |  |  |  |  |  |  |  |  |  |  | MIC, range over strains [13]: 0.7 to 7.3 µM; concentration at which the viability of human keratinocyte was affected [14]: 160 µg/mL |
| ILGRLRDLLRRGGRKIGQGLERIGQRIQGFFSNREPMEES [HA-CATH] |  |  |  |  |  |  |  |  |  |  |  |  |  |  |  |  |  |  |  |  | MIC, range over strains [13]: 1.1 to 7.3 µM |
| LLRRGGRKIGQGLERIGQRIQGF [ΔHA-CATH] |  |  |  |  |  |  |  |  |  |  |  |  |  |  |  |  |  |  |  |  | MIC (no observable antibacterial activity) [13]: > 13.7 µM |
| LNPLIKAGIFILKHRRPIGRGIEITGRGIKKFFSK [ML-CATH] |  |  |  |  |  |  |  |  |  |  |  |  |  |  |  |  |  |  |  |  | MIC, range over strains [13]: 0.3 to 8.8 µM; MICs, range [13]: 0.5 to 0.8 µM |
| Triton X-100 |  |  |  |  |  |  |  |  |  |  |  |  |  |  |  |  |  |  |  |  | Cell Viability ± SD [14]: 8.9 ± 0.05 % |
